Reference: patent US20220348595A1, “COMPOUNDS AND METHODS FOR THE TARGETED DEGRADATION OF ESTROGEN RECEPTORS” (Endotarget Inc., priority 2021, published 2022)

Columns and labels:
Format in all cases: cell-based
[1] = system: MCF-7 breast cancer cells; experiment: MCF-7 proliferation / cell viability assay; settings: Homo sapiens, MCF7; MCF-7 proliferation with 0.1 nM 17-beta estradiol; read-out: IC50 (anti-proliferation)
Outline: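 MCF-7 cells in 5% FBS DMEM were exposed for 5 days to compound at 6 doses from 10^−10 M to 10^−5 M, with DMSO as vehicle. Viable cells were counted by Coulter counter. Survival ratio = treated/vehicle viable cell number, vehicle set to 100%.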

ERα = molecular target: T1, ERα (Homo sapiens, UniProt P03372); experiment: ER degradation in MCF-7 cells (Western blot); settings: for DC50: ER degradation, 24 hours; for Dmax: MCF7, Maximal ER degradation, read-out: Dmax
T1 construct: endogenous in cells; host or cells: MCF-7
T1 sequence (P03372 1-595): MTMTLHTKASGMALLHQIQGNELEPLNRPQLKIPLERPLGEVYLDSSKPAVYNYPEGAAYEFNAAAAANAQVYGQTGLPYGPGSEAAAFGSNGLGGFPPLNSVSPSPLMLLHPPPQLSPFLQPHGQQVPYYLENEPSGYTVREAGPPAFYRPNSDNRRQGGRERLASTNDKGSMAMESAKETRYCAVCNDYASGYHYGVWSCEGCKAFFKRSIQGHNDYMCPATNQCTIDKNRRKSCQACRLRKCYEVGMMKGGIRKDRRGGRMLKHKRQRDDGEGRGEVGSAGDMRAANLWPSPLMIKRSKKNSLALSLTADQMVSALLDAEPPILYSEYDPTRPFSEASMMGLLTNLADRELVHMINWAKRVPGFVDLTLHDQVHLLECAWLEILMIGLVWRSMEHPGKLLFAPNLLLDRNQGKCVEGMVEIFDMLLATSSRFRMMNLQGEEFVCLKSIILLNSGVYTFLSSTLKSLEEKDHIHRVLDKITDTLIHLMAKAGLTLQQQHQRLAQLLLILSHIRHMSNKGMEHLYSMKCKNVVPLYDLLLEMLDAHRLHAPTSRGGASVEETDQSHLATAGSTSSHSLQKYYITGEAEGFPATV
Outline: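 MCF-7 cells treated with a range of compound concentrations for 24 hours, then lysed; 50 μg protein probed for ERα by Western blot with infrared imaging. DC50 is concentration giving 50% ER reduction; Dmax is the highest percentage reduction over the range tested.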

ER = molecular target: T2, ER (Homo sapiens, UniProt P03372); experiment: ER antagonism (T47D ERE luciferase), T47d-kb-Luc cells; settings: read-out: IC50 (ER antagonistm)
T2 construct: endogenous in cells; host or cells: T47d-kb-Luc (T47D stably transfected with a luciferase reporter gene only)
T2 sequence (P03372 1-595): T1 sequence (P03372 1-595)
Outline: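 Stably transfected T47d-kb-Luc human breast cancer cells were used, and antagonism was measured as inhibition of estradiol-driven activity. Data were normalised to the estradiol control. Five concentrations were tested in quadruplicate across at least three experiments.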

In the case of `CC/C(=C(\c1ccc(B(O)O)cc1)c1ccc(N2CCN(CCCN3CCN(c4ccc5c(c4)C(=O)N(C4CCC(=O)NC4=O)C5=O)CC3)CC2)cc1)c1ccccc1` (stereo not drawn) [Compound 43, (Z)-(4-(1-(4-(4-(3-(4-(2-(2,6-dioxopiperidin-3-yl)-1,3-dioxoisoindolin-5-yl)piperazin-1-yl)propyl)piperazin-1-yl)phenyl)-2-phenylbut-1-en-1-yl)phenyl)boronic acid], the IC50 [1] is reported as < 10 nM, the DC50 (ERα) is reported as < 10 nM and the Dmax (ERα) is reported as > 90%. It also gave an IC50 (ER) of 10 to 50 nM.
For `CC/C(=C(/c1ccc(B(O)O)cc1)c1ccc(N2CCN(CCCN3CCN(c4ccc5c(c4)C(=O)N(C4CCC(=O)NC4=O)C5=O)CC3)CC2)cc1)c1ccccc1` (stereo not drawn) [Compound 44, (E)-(4-(1-(4-(4-(3-(4-(2-(2,6-dioxopiperidin-3-yl)-1,3-dioxoisoindolin-5-yl)piperazin-1-yl)propyl)piperazin-1-yl)phenyl)-2-phenylbut-1-en-1-yl)phenyl)boronic acid], the IC50 [1] was 10 to 50 nM, the DC50 (ERα) was < 10 nM and the Dmax (ERα) was > 90%. For the same compound, the IC50 (ER) was < 10 nM.
For `CC/C(=C(\c1ccc(B(O)O)cc1)c1ccc(N2CCN(CCCN3CCN(c4ccc5c(c4)CN(C4CCC(=O)NC4=O)C5=O)CC3)CC2)cc1)c1ccccc1` (stereo not drawn) [Compound 45, (Z)-(4-(1-(4-(4-(3-(4-(2-(2,6-dioxopiperidin-3-yl)-1-oxoisoindolin-5-yl)piperazin-1-yl)propyl)piperazin-1-yl)phenyl)-2-phenylbut-1-en-1-yl)phenyl)boronic acid], the IC50 [1] was 10 to 50 nM, the DC50 (ERα) was < 10 nM and the Dmax (ERα) was > 90%. For the same compound, the IC50 (ER) was < 10 nM.
In the case of `CC/C(=C(/c1ccc(B(O)O)cc1)c1ccc(N2CCN(CCCN3CCN(c4ccc5c(c4)CN(C4CCC(=O)NC4=O)C5=O)CC3)CC2)cc1)c1ccccc1` (stereo not drawn) [Compound 46, (E)-(4-(1-(4-(4-(3-(4-(2-(2,6-dioxopiperidin-3-yl)-1-oxoisoindolin-5-yl)piperazin-1-yl)propyl)piperazin-1-yl)phenyl)-2-phenylbut-1-en-1-yl)phenyl)boronic acid], the IC50 [1] is reported as 10 to 50 nM, the DC50 (ERα) is reported as < 10 nM and the Dmax (ERα) is reported as > 90%. For the same compound, the IC50 (ER) was < 10 nM.
For `CC/C(=C(\c1ccc(B(O)O)cc1)c1ccc(C2CCN(CCCN3CCN(c4ccc5c(c4)C(=O)N(C4CCC(=O)NC4=O)C5=O)CC3)CC2)cc1)c1ccccc1` (stereo not drawn) [Compound 47], the IC50 [1] was 10 to 50 nM, the DC50 (ERα) was < 10 nM and the Dmax (ERα) was > 90%. The IC50 (ER) was 10 to 50 nM.
In the case of `CC/C(=C(/c1ccc(B(O)O)cc1)c1ccc(C2CCN(CCCN3CCN(c4ccc5c(c4)C(=O)N(C4CCC(=O)NC4=O)C5=O)CC3)CC2)cc1)c1ccccc1` (stereo not drawn) [Compound 48, (E)-(4-(1-(4-(1-(3-(4-(2-(2,6-dioxopiperidin-3-yl)-1,3-dioxoisoindolin-5-yl)piperazin-1-yl)propyl)piperidin-4-yl)phenyl)-2-phenylbut-1-en-1-yl)phenyl)boronic acid], the IC50 [1] is reported as 10 to 50 nM, the DC50 (ERα) is reported as < 10 nM and the Dmax (ERα) is reported as > 90%. It also gave an IC50 (ER) of 10 to 50 nM.
For `CC/C(=C(\c1ccc(B(O)O)cc1)c1ccc(C2CCN(CCCN3CCN(c4ccc5c(c4)CN(C4CCC(=O)NC4=O)C5=O)CC3)CC2)cc1)c1ccccc1` (stereo not drawn) [Compound 49, (Z)-(4-(1-(4-(1-(3-(4-(2-(2,6-dioxopiperidin-3-yl)-1-oxoisoindolin-5-yl)piperazin-1-yl)propyl)piperidin-4-yl)phenyl)-2-phenylbut-1-en-1-yl)phenyl)boronic acid], the IC50 [1] was 10 to 50 nM, the DC50 (ERα) was < 10 nM and the Dmax (ERα) was > 90%. For the same compound, the IC50 (ER) was < 10 nM.
`CC/C(=C(/c1ccc(B(O)O)cc1)c1ccc(C2CCN(CCCN3CCN(c4ccc5c(c4)CN(C4CCC(=O)NC4=O)C5=O)CC3)CC2)cc1)c1ccccc1` (stereo not drawn) [Compound 50, (E)-(4-(1-(4-(1-(3-(4-(2-(2,6-dioxopiperidin-3-yl)-1-oxoisoindolin-5-yl)piperazin-1-yl)propyl)piperidin-4-yl)phenyl)-2-phenylbut-1-en-1-yl)phenyl)boronic acid] was tested, and the IC50 [1] was 10 to 50 nM, the DC50 (ERα) was < 10 nM and the Dmax (ERα) was > 90%. The IC50 (ER) was < 10 nM.
For `CC/C(=C(\c1ccc(B(O)O)cc1)c1ccc(N2CCC(CCCN3CCN(c4ccc5c(c4)C(=O)N(C4CCC(=O)NC4=O)C5=O)CC3)CC2)cc1)c1ccccc1` (stereo not drawn) [Compound 51, (Z)-(4-(1-(4-(4-(3-(4-(2-(2,6-dioxopiperidin-3-yl)-1,3-dioxoisoindolin-5-yl)piperazin-1-yl)propyl)piperidin-1-yl)phenyl)-2-phenylbut-1-en-1-yl)phenyl)boronic acid], the IC50 [1] was 10 to 50 nM, the DC50 (ERα) was < 10 nM and the Dmax (ERα) was > 90%. It also gave an IC50 (ER) of 10 to 50 nM.
With `CC/C(=C(/c1ccc(B(O)O)cc1)c1ccc(N2CCC(CCCN3CCN(c4ccc5c(c4)C(=O)N(C4CCC(=O)NC4=O)C5=O)CC3)CC2)cc1)c1ccccc1` (stereo not drawn) [Compound 52, (E)-(4-(1-(4-(4-(3-(4-(2-(2,6-dioxopiperidin-3-yl)-1,3-dioxoisoindolin-5-yl)piperazin-1-yl)propyl)piperidin-1-yl)phenyl)-2-phenylbut-1-en-1-yl)phenyl)boronic acid] the IC50 [1] was 10 to 50 nM, the DC50 (ERα) was < 10 nM and the Dmax (ERα) was > 90%. It also gave an IC50 (ER) of 10 to 50 nM.
For `CC/C(=C(\c1ccc(B(O)O)cc1)c1ccc(N2CCC(CCCN3CCN(c4ccc5c(c4)CN(C4CCC(=O)NC4=O)C5=O)CC3)CC2)cc1)c1ccccc1` (stereo not drawn) [Compound 53, (Z)-(4-(1-(4-(4-(3-(4-(2-(2,6-dioxopiperidin-3-yl)-1-oxoisoindolin-5-yl)piperazin-1-yl)propyl)piperidin-1-yl)phenyl)-2-phenylbut-1-en-1-yl)phenyl)boronic acid], the IC50 [1] was 10 to 50 nM, the DC50 (ERα) was < 10 nM and the Dmax (ERα) was > 90%. For the same compound, the IC50 (ER) was < 10 nM.
`CC/C(=C(/c1ccc(B(O)O)cc1)c1ccc(N2CCC(CCCN3CCN(c4ccc5c(c4)CN(C4CCC(=O)NC4=O)C5=O)CC3)CC2)cc1)c1ccccc1` (stereo not drawn) [Compound 54] was tested, and the IC50 [1] was 10 to 50 nM, the DC50 (ERα) was < 10 nM and the Dmax (ERα) was > 90%. The IC50 (ER) was < 10 nM.
For `CC/C(=C(\c1ccc(B(O)O)cc1)c1ccc(N2CCN(CCCC3CCN(c4ccc5c(c4)C(=O)N(C4CCC(=O)NC4=O)C5=O)CC3)CC2)cc1)c1ccccc1` (stereo not drawn) [Compound 55, (Z)-(4-(1-(4-(4-(3-(1-(2-(2,6-dioxopiperidin-3-yl)-1,3-dioxoisoindolin-5-yl)piperidin-4-yl)propyl)piperazin-1-yl)phenyl)-2-phenylbut-1-en-1-yl)phenyl)boronic acid], the IC50 [1] was 10 to 50 nM, the DC50 (ERα) was < 10 nM and the Dmax (ERα) was > 75%. It also gave an IC50 (ER) of 10 to 50 nM.
`CC/C(=C(/c1ccc(B(O)O)cc1)c1ccc(N2CCN(CCCC3CCN(c4ccc5c(c4)C(=O)N(C4CCC(=O)NC4=O)C5=O)CC3)CC2)cc1)c1ccccc1` (stereo not drawn) [Compound 56, (E)-(4-(1-(4-(4-(3-(1-(2-(2,6-dioxopiperidin-3-yl)-1,3-dioxoisoindolin-5-yl)piperidin-4-yl)propyl)piperazin-1-yl)phenyl)-2-phenlbut-1-en-1-yl)phenyl)boronic acid] was tested, and the IC50 [1] was 10 to 50 nM, the DC50 (ERα) was < 10 nM and the Dmax (ERα) was > 75%. The IC50 (ER) was 10 to 50 nM.
For `CC/C(=C(\c1ccc(B(O)O)cc1)c1ccc(N2CCN(CCCC3CCN(c4ccc5c(c4)CN(C4CCC(=O)NC4=O)C5=O)CC3)CC2)cc1)c1ccccc1` (stereo not drawn) [Compound 57, (Z)-(4-(1-(4-(4-(3-(1-(2-(2,6-dioxopiperidin-3-yl)-1-oxoisoindolin-5-yl)piperidin-4-yl)propyl)piperazin-1-yl)phenyl)-2-phenylbut-1-en-1-yl)phenyl)boronic acid], the IC50 [1] was 10 to 50 nM, the DC50 (ERα) was < 10 nM and the Dmax (ERα) was > 90%. It also gave an IC50 (ER) of 10 to 50 nM.
